# Legend:
# Format in all cases: biochemical
# JAK2 = JAK2 (Homo sapiens (Human), UniProt O60674); test: JAK2 LANCE Ultra kinase assay; details: 12 uM ATP
# JAK3 = JAK3 (Homo sapiens (Human), UniProt P52333); test: JAK3 LANCE Ultra kinase assay; details: 4 uM ATP
# JAK1 = JAK1 (Homo sapiens (Human), UniProt P23458); test: JAK1 LANCE Ultra kinase assay; details: for IC50: 38 uM ATP; for JAK2/JAK1: ratio of IC50 JAK2 to IC50 JAK1
# Procedure: Inhibition test on activity of JAK kinase in vitro was carried out by the following methods.
# JAK1 LANCE® Ultra assay, JAK2 LANCE® Ultra assay and JAK3 LANCE® Ultra assay were used to carry out the test separately, and kits of the above assays were supplied by PerkinElmer. […]
# JAK1, JAK2 and JAK3 kinase, ATP and substrates were dissolved and diluted with buffers.
# A test liquid was 2 nM Eu-W1024 anti-phosphotyrosine (PerkinElmer, AD0069). A stop buffer was 10 mM edetic acid (Intech, 1842C505).
# 2.5 μl of an 8-fold solution of the compound and 5 μl of a 4-fold solution of JAK1 or JAK2 or JAK3 kinase were added into a 384-well plate, respectively, and reacted for 10 minutes at room temperature. 2.5 μl of an 8-fold solution of ULight™-JAK-1 peptide/ATP was added and reacted for 90 minutes at room temperature. Finally, 5 μl of 4-fold edetic acid stop buffer and 5 μl of 4-fold test liquid of Eu-W1024 anti-phosphotyrosine were added and incubated for 60 minutes.
# According to the formula: percentage of inhibition rate=(maximum value−transform value)/(maximum value−minimum value)×100, inhibition rate of each compound at various concentrations was calculated. The maximum value was the reference value of dimethyl sulfoxide added into the well plate, the minimum value was the blank value, and the transform value is the value obtained by the well of each compound. The IC50 values of the corresponding compounds were then obtained by fitting by using the XLFit fitting tool in excel.
# JAK1, sequence (P23458 whole entry): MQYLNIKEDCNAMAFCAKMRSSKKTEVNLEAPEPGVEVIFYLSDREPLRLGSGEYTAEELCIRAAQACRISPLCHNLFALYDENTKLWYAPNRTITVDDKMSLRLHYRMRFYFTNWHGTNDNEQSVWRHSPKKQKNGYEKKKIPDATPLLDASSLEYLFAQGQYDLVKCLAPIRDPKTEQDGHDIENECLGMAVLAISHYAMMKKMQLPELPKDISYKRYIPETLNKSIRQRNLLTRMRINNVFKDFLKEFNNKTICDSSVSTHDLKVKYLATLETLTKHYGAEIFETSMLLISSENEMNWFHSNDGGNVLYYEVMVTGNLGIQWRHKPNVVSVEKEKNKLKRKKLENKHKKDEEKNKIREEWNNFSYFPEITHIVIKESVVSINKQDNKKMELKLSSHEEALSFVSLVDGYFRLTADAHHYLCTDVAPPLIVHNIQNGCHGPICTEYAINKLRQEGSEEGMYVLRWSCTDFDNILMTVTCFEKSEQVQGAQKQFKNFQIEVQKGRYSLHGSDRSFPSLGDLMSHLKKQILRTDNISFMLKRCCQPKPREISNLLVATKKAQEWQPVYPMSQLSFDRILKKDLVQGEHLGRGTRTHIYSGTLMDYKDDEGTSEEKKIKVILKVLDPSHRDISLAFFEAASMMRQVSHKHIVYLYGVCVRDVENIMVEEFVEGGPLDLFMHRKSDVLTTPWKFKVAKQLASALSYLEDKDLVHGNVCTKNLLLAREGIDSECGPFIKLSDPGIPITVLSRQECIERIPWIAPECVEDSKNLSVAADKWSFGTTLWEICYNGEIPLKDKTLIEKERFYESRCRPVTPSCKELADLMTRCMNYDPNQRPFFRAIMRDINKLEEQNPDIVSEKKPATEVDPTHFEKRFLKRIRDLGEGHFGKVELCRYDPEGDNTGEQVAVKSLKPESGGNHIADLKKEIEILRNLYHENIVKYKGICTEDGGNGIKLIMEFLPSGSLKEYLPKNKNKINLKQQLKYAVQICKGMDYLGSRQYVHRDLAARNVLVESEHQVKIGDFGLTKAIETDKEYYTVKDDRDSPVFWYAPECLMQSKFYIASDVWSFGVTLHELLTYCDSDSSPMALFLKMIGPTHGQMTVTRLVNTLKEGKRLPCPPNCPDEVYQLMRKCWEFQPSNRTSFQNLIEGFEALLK
# JAK2, sequence (O60674 whole entry): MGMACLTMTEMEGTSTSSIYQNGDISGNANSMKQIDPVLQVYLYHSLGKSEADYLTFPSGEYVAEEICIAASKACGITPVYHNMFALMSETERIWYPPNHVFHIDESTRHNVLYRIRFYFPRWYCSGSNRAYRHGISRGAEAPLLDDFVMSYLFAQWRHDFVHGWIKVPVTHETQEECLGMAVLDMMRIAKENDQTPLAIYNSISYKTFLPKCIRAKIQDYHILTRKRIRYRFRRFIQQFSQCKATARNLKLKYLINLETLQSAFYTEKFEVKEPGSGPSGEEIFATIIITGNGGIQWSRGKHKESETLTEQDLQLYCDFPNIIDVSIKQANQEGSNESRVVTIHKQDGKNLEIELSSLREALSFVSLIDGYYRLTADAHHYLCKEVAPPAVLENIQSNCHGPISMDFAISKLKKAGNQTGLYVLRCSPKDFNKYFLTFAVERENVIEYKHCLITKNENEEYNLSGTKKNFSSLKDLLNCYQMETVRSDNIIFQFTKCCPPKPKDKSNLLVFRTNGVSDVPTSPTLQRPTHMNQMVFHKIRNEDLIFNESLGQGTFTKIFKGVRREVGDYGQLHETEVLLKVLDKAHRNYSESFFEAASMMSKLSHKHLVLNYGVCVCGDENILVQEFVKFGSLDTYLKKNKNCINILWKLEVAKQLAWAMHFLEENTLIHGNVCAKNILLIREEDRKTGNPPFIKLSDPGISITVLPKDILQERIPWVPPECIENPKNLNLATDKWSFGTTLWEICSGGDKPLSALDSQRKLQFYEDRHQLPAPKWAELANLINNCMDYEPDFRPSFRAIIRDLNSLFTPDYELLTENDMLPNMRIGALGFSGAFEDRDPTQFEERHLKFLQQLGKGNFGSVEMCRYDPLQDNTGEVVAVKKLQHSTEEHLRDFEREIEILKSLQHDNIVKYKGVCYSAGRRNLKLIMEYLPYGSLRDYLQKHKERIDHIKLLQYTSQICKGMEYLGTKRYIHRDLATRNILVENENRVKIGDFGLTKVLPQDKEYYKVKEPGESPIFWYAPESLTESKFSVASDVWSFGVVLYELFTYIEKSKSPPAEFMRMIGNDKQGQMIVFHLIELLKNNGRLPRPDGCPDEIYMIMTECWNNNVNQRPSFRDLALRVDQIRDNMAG
# JAK3, sequence (P52333 whole entry): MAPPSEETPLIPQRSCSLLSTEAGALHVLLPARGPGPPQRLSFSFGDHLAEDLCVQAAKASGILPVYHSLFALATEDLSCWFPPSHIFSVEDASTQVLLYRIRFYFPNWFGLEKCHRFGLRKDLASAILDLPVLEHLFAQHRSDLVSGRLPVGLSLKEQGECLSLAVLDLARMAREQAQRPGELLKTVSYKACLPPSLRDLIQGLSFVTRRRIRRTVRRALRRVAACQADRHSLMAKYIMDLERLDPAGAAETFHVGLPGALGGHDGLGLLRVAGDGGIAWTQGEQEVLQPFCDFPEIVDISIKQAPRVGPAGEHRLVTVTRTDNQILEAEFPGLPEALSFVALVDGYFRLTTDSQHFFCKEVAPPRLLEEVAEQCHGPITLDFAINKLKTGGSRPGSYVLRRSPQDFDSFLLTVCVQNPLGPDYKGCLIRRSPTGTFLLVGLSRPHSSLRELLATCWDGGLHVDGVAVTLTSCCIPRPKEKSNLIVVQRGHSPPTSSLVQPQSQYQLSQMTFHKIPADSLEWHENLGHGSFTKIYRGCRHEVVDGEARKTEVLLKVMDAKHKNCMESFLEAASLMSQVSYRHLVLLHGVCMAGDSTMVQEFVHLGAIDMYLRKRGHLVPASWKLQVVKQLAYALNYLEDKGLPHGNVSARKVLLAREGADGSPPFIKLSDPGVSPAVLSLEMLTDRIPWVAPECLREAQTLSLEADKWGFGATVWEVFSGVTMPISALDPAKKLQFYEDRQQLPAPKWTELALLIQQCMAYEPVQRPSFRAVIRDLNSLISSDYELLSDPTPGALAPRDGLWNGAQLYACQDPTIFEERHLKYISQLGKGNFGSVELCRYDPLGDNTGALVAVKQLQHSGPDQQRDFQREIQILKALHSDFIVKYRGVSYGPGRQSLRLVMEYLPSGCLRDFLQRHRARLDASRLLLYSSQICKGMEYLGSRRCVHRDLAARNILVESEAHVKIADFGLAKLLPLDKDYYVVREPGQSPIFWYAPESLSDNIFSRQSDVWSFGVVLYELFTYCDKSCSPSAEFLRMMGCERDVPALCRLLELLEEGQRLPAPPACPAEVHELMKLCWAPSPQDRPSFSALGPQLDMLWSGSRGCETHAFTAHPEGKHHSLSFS
SMILES,IC50 (JAK2) [nM],IC50 (JAK3) [nM],IC50 (JAK1) [nM],JAK2/JAK1 (JAK1)
"C[C@@H]1CN(C(=O)CC#N)C[C@@H]1N(C)c1c(C#N)cnc2[nH]ccc12 (relative stereo) [Compound H05, (cis)-4-{[4-methyl-1-(2-cyanoacetyl)pyrrolidin-3-yl]-methyl-amino}-1H-pyrrolo[2,3-b]pyridin-5-carbonitrile]",12.3,256,7.86,1.56
COCc1nsc(NC(=O)N2C[C@H]3C[C@H](N(C)c4c(C#N)cnc5[nH]ccc45)C[C@H]3C2)n1 [Compound H56],10,82,1.43,7.01
"CNCC1CCN(S(=O)(=O)C[C@H]2CC[C@H](N(C)c3c(C#N)cnc4[nH]ccc34)CC2)C1 (stereo partly drawn) [Compound H67, 4-(methyl-(trans-4-(((3-((methylamino)methyl)pyrrolidin-1-yl)sulfonyl)methyl)cyclohexyl)amino)-1H-pyrrolo[2,3-b]pyridin-5-carbonitrile]",9.5,76,0.67,14.18
"CN1CCN(S(=O)(=O)C[C@H]2CC[C@H](N(C)c3c(C#N)cnc4[nH]ccc34)CC2)CC1 [Compound H63, Trans-4-(methyl((1r,4r)-4-(((4-methylpiperazin-1-yl)sulfonyl)methyl)cyclohexyl)amino)-1H-pyrrolo[2,3-b]pyridin-5-carbonitrile]",7.3,64,1.42,5.14
"CC[C@@H]1CN(C(=O)NC2CC2)C[C@@H]1Nc1c(C#N)cnc2[nH]ccc12 (relative stereo) [Compound H84, (cis)-3-((5-cyano-1H-pyrrolo[2,3-b]pyridin-4-yl)amino)-N-cyclopropyl-4-ethylpyrrolidin-1-carboxamide]",38,387,6.9,5.51
"CC[C@@H]1CC(NC(=O)Nc2nc(OC)ns2)C[C@@H]1Nc1c(C#N)cnc2[nH]ccc12 (stereo partly drawn) [Compound H61, 1-((3S,4R)-3-((5-cyano-1H-pyrrolo[2,3-b]pyridin-4-yl)amino)-4-ethylcyclopentyl)-3-(3-methoxy-1,2,4-thiadiazole-5-yl)urea]",126,589,8.23,15.31
"CCC1CN(C(=O)NCC2CC2)CC1Nc1c(C#N)cnc2[nH]ccc12 (stereo not drawn) [Compound H82, 3-((5-cyano-1H-pyrrolo[2,3-b]pyridin-4-yl)amino)-4-ethyl-N-(cyclopropylmethyl)pyrrolidin-1-carboxamide]",69,172,8.9,7.75
"C[C@H](O)C(=O)N1C[C@H]2C[C@@H](N(C)c3c(C#N)cnc4[nH]ccc34)C[C@H]2C1 [Compound H06, (3aR,5R,6aS)-4-{[2-((2S)-2-hydroxypropionyl)-hexahydrocyclopenta[c]pyrrole-5-yl]-methyl-amino}-1H-pyrrolo[2,3-b]pyridin-5-carbonitrile]",29.9,96,6.68,–
"CC[C@@H]1CC(NC(=O)CCC(F)(F)F)C[C@@H]1Nc1c(C#N)cnc2[nH]ccc12 (stereo in doubt) [Compound H59, N-(3-((5-cyano-1H-pyrrolo[2,3-b]pyridin-4-yl)amino)-4-ethylcyclopentyl)-4,4,4-trifluorobutanamide]",11.6,39.6,2.06,5.63
"N#Cc1cnc2[nH]ccc2c1N[C@H]1CN(C(=O)NCC(F)(F)F)CC12CC2 [Compound H72, (R)-7-((5-cyano-1H-pyrrolo[2,3-b]pyridin-4-yl)amino)-N-(2,2,2-trifluoroethyl)-5-azaspiro[2.4]heptane-5-carboxamide]",29,75,10.3,2.82
"C[C@@H]1CN(S(=O)(=O)C[C@H]2CC[C@H](N(C)c3c(C#N)cnc4[nH]ccc34)CC2)C[C@H]1CO (relative stereo) [Compound H66, 4-((trans-4-(((trans-3-(hydroxymethyl)-4-methylpyrrolidin-1-yl)sulfonyl)methyl)cyclohexyl)(methyl)amino)-1H-pyrrolo[2,3-b]pyridin-5-carbonitrile]",126,197,8.9,14.16
"CC[C@@H]1CN(C(=O)NCC(C)(F)F)C[C@@H]1Nc1c(C#N)cnc2[nH]ccc12 (relative stereo) [Compound H89, (cis)-3-((5-cyano-1H-pyrrolo[2,3-b]pyridin-4-yl)amino)-N-(2,2-difluoropropyl)-4-ethylpyrrolidin-1-carboxamide]",19.7,241,2.9,6.79
"CC[C@@H]1CN(C(=O)CCC(F)(F)F)C[C@@H]1Nc1c(C#N)cnc2[nH]ccc12 (relative stereo) [Compound H77, 4-(((cis)-4-ethyl-1-(4,4,4-trifluorobutyryl)pyrrolidin-3-yl)amino)-1H-pyrrolo[2,3-b]pyridin-5-carbonitrile]",49,273,4.2,11.67

# Now from value to compound:
IC50 (JAK2) [nM],IC50 (JAK3) [nM],IC50 (JAK1) [nM],JAK2/JAK1 (JAK1),SMILES
7.9,112,0.86,9.19,"CC[C@@H]1CN(CCC#N)C[C@@H]1Nc1c(C#N)cnc2[nH]ccc12 (relative stereo) [Compound H88, 4-(((cis)-1-(2-cyanoethyl)-4-ethylpyrrolidin-3-yl)amino)-1H-pyrrolo[2,3-b]pyridin-5-carbonitrile]"
20,130,2.67,7.49,"CCOc1noc(NC(=O)N2C[C@H]3C[C@H](N(C)c4c(C#N)cnc5[nH]ccc45)C[C@H]3C2)n1 [Compound H47, (3aR,5s,6aS)-5-((5-cyano-1H-pyrrolo[2,3-b]pyridin-4-yl)(methyl)amino)-N-(3-ethoxy-1,2,4-oxadiazole-5-yl)hexahydrocyclopentadiene[c]pyrrole-2(1H)-carboxamide]"
46,223,9.4,15.40,"CN(c1c(C#N)cnc2[nH]ccc12)[C@H]1C[C@@H]2CN(C(=O)Nc3nc(C(C)(C)C)ns3)C[C@@H]2C1 [Compound H21, (3aR,5s,6aS)-4-({2-[(3-tert-butyl-1,2,4-thiadiazole-5-yl)carbamoyl]-hexahydrocyclopenta [c]pyrrole-5-yl}-methyl-amino)-1H-pyrrolo[2,3-b]pyridin-5-carbonitrile]"
7.3,90,0.81,9.01,"CN(c1c(C#N)cnc2[nH]ccc12)[C@H]1CC[C@H](CS(=O)(=O)N2CCC(CO)C2)CC1 (stereo partly drawn) [Compound H69, 4-((trans-4-(((3-(hydroxymethyl)pyrrolidin-1-yl)sulfonyl)methyl)cyclohexyl)(methyl)amino)-1H-pyrrolo[2,3-b]pyridin-5-carbonitrile]"
7.8,91,0.95,8.21,"CC[C@@H]1CN(S(=O)(=O)CCC(F)(F)F)C[C@@H]1Nc1c(C#N)cnc2[nH]ccc12 (relative stereo) [Compound H76, 4-(((cis)-4-ethyl-1-((3,3,3-trifluoropropyl)sulfonyl)pyrrolidin-3-yl)amino)-1H-pyrrolo[2,3-b]pyridin-5-carbonitrile]"
7.1,79,0.64,11.09,"CC[C@@H]1CN(C(=O)NCC#N)C[C@@H]1Nc1c(C(F)(F)F)cnc2[nH]ccc12 [Compound H93, (cis)-3-ethyl-N-(cyanmethyl)-4-((5-(trifluoromethyl)-1H-pyrrolo[2,3-b]pyridin-4-yl)amino)pyrrolidin-1-carboxamide]"
50,77,5.9,8.47,"CN(c1c(C#N)cnc2[nH]ccc12)[C@H]1C[C@@H]2CN(C(=O)Nc3nc(OCC(C)(C)O)ns3)C[C@@H]2C1 [Compound H45, (3aR,5s,6aS)-5-((5-cyano-1H-pyrrolo[2,3-b]pyridin-4-yl)(methyl)amino)-N-(3-(2-hydroxy-2-methyl-propoxy)-1,2,4-thiadiazole-5-yl)hexahydrocyclopentadiene[c]pyrrole-2(1H)-carboxamide]"
29,169,1.41,20.57,"CC[C@@H]1CN(C(=O)NCC(C)(C)C)C[C@@H]1Nc1c(C#N)cnc2[nH]ccc12 (relative stereo) [Compound H86, (cis)-3-((5-cyano-1H-pyrrolo[2,3-b]pyridin-4-yl)amino)-4-ethyl-N-neopentyl-pyrrolidin-1-carboxamide]"
117,162,9.3,12.58,"CC[C@@H]1CN(C(=O)CCC#N)C[C@@H]1Nc1c(C#N)cnc2[nH]ccc12 (relative stereo) [Compound H81, 4-(((cis)-1-(3-cyanopropionyl)-4-ethylpyrrolidin-3-yl)amino)-1H-pyrrolo[2,3-b]pyridin-5-carbonitrile]"
